Source: patent US9409866B2, “Pyridine-2-amides useful as CB2 agonists” (Hoffmann-La Roche Inc., priority 2012, dated 2016)
pEC50: −log10 of the molar value. Like-named read-outs stand apart in the source and are kept apart here.

Tests used:
human CB2 receptors = human CB2 receptors (Homo sapiens (Human), UniProt P34972); assay: functional cAMP assay, CHO cells expressing human CB2; type: cell-based; details: for pEC50: read-out: Human CB2 EC50
Summary of the method: (§1)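 Compound exposure lasted 30 min at 30 °C in IBMX (1 mM)-containing Krebs Ringer bicarbonate buffer, applied to human CB1- or CB2-expressing CHO cells. Lysates were read by time-resolved FRET cAMP detection, converted via cAMP standard curve (10 μM–0.13 nM), and EC50 values calculated.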

human CB1 receptors = human CB1 receptors (Homo sapiens (Human), UniProt P21554); assay: functional cAMP assay, CHO cells expressing human CB1; type: cell-based; details: functional cAMP assay, CHO cells expressing human CB1; for pEC50: read-out: Human CB1 EC50
Sequence of human CB1 receptors (P21554 whole entry): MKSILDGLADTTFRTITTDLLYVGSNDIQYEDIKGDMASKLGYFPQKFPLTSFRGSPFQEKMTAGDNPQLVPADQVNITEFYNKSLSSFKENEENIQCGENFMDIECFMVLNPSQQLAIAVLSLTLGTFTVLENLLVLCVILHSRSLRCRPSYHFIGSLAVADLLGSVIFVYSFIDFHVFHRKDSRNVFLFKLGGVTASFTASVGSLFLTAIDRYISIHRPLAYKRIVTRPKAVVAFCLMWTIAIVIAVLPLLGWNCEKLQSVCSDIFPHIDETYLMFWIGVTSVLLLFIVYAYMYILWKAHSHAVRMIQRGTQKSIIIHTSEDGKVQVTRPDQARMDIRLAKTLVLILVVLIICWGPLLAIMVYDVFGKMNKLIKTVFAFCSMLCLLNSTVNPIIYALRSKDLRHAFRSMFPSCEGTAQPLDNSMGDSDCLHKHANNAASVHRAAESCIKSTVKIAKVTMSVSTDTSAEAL
Summary of the method: as §1

Sequence of human CB2 receptors (P34972 whole entry): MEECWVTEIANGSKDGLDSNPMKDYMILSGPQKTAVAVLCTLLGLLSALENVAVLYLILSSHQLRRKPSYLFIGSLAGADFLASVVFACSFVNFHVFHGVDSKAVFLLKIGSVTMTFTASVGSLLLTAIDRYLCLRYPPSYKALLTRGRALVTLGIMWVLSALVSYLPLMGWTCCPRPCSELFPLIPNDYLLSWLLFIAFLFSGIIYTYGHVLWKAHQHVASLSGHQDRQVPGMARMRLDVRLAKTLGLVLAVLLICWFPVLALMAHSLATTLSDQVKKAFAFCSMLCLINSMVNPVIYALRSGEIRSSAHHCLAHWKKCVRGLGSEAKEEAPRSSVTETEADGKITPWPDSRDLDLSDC

## Cn1nnnc1C(C)(CC1CC1)NC(=O)c1cc(OCC(F)(F)F)c(C2CC2)cn1 (stereo not drawn) [Example 151, 5-cyclopropyl-N-[1-cyclopropyl-2-(1-methyltetrazol-5-yl)propan-2-yl]-4-(2,2,2-trifluoroethoxy)pyridine-2-carboxamide]
Human CB2 receptors
  pEC50: 7.70
Human CB1 receptors
  pEC50: < 5.00

## Cc1csc(C2(NC(=O)c3cc(OCC(F)(F)F)c(C4CC4)cn3)CCOCC2)n1 [Example 152, 5-cyclopropyl-N-[4-(4-methyl-1,3-thiazol-2-yl)oxan-4-yl]-4-(2,2,2-trifluoroethoxy)pyridine-2-carboxamide]
Human CB2 receptors
  pEC50: 6.73
Human CB1 receptors
  pEC50: < 5.00

## Cc1cnc(C2(NC(=O)c3cc(OCC(F)(F)F)c(C4CC4)cn3)CCOCC2)s1 [Example 153, 5-cyclopropyl-N-[4-(5-methyl-1,3-thiazol-2-yl)oxan-4-yl]-4-(2,2,2-trifluoroethoxy)pyridine-2-carboxamide]
Human CB2 receptors; Human CB2 EC50 (uM)
  EC50: 0.0407 µM
Human CB1 receptors; Human CB1 EC50 (uM)
  EC50: > 10 µM

## Cc1csc(C(C)(CC2CC2)NC(=O)c2cc(OCC(F)(F)F)c(C3CC3)cn2)n1 (stereo not drawn) [Example 158, 5-cyclopropyl-N-[1-cyclopropyl-2-(4-methyl-1,3-thiazol-2-yl)propan-2-yl]-4-(2,2,2-trifluoroethoxy)pyridine-2-carboxamide]
Human CB2 receptors
  pEC50: 7.02
Human CB1 receptors
  pEC50: < 5.00

## CC(CC1CC1)(NC(=O)c1cc(OCC(F)(F)F)c(C2CC2)cn1)c1nnn[nH]1 (stereo not drawn) [Example 159, 5-cyclopropyl-N-[1-cyclopropyl-2-(1H-tetrazol-5-yl)propan-2-yl]-4-(2,2,2-trifluoroethoxy)pyridine-2-carboxamide]
Human CB2 receptors
  pEC50: 6.03
Human CB1 receptors
  pEC50: < 5.00

## NC(=O)CC1(NC(=O)c2cc(OCC(F)(F)F)c(C3CC3)cn2)CS(=O)(=O)C1 [Example 160, N-[3-(2-amino-2-oxoethyl)-1,1-dioxothietan-3-yl]-5-cyclopropyl-4-(2,2,2-trifluoroethoxy)pyridine-2-carboxamide]
Human CB2 receptors
  pEC50: 7.93
Human CB1 receptors
  pEC50: < 5.00

## Cc1nc(C(NC(=O)c2cc(OCC(F)(F)F)c(C3CC3)cn2)C(C)(C)C)no1 (stereo not drawn) [Example 161, 5-cyclopropyl-N-[2,2-dimethyl-1-(5-methyl-1,2,4-oxadiazol-3-yl)propyl]-4-(2,2,2-trifluoroethoxy)pyridine-2-carboxamide]
Human CB2 receptors
  pEC50: 8.06
Human CB1 receptors
  pEC50: < 5.00

## CC(C)(C)C(NC(=O)c1cc(OCC(F)(F)F)c(C2CC2)cn1)c1nn[nH]n1 (stereo not drawn) [Example 162, 5-cyclopropyl-N-[2,2-dimethyl-1-(1H-tetrazol-5-yl)propyl]-4-(2,2,2-trifluoroethoxy)pyridine-2-carboxamide]
Human CB2 receptors
  pEC50: 7.14
Human CB1 receptors
  pEC50: < 5.00

## Cn1nnc(C(NC(=O)c2cc(OCC(F)(F)F)c(C3CC3)cn2)C(C)(C)C)n1 (stereo not drawn) [Example 163, 5-cyclopropyl-N-[2,2-dimethyl-1-(2-methyltetrazol-5-yl)propyl]-4-(2,2,2-trifluoroethoxy)pyridine-2-carboxamide]
Human CB2 receptors
  pEC50: 8.35
Human CB1 receptors
  pEC50: < 5.00

## CC(CC1CC1)(NC(=O)c1cc(OCC(F)(F)F)c(C2CC2)cn1)c1noc(N)n1 (stereo not drawn) [Example 165, N-[2-(5-amino-1,2,4-oxadiazol-3-yl)-1-cyclopropylpropan-2-yl]-5-cyclopropyl-4-(2,2,2-trifluoroethoxy)pyridine-2-carboxamide]
Human CB2 receptors
  pEC50: 7.66
Human CB1 receptors
  pEC50: < 5.00

## Cc1nc([C@@](C)(NC(=O)c2cc(O[C@@H](C)C(F)(F)F)c(C3(F)COC3)cn2)C2CC2)no1 [Example 168, N-[1-cyclopropyl-1-(5-methyl-1,2,4-oxadiazol-3-yl)ethyl]-5-(3-fluorooxetan-3-yl)-4-[(2S)-1,1,1-trifluoropropan-2-yl]oxypyridine-2-carboxamide]
Human CB2 receptors
  pEC50: 6.55
Human CB1 receptors
  pEC50: < 5.00

## Cc1nc(C(C)(NC(=O)c2cc(O[C@@H](C)C(F)(F)F)c(C3(F)COC3)cn2)C2CC2)no1 (stereo partly drawn) [Example 169, N-[1-cyclopropyl-1-(5-methyl-1,2,4-oxadiazol-3-yl)ethyl]-5-(3-fluorooxetan-3-yl)-4-[(2S)-1,1,1-trifluoropropan-2-yl]oxypyridine-2-carboxamide]
Human CB2 receptors
  pEC50: 8.26
Human CB1 receptors
  pEC50: < 5.00

## Cc1nc(C(C)(CC2CC2)NC(=O)c2cc(O[C@@H](C)C(F)(F)F)c(C3(F)COC3)cn2)no1 (stereo partly drawn) [Example 170, N-[1-cyclopropyl-2-(5-methyl-1,2,4-oxadiazol-3-yl)propan-2-yl]-5-(3-fluorooxetan-3-yl)-4-[(2S)-1,1,1-trifluoropropan-2-yl]oxypyridine-2-carboxamide]
Human CB2 receptors
  pEC50: 7.60
Human CB1 receptors
  pEC50: < 5.00

## Cc1nc(C(C)(CC2CC2)NC(=O)c2cc(O[C@@H](C)C(F)(F)F)c(C3(F)COC3)cn2)no1 (stereo partly drawn) [Example 171, N-[1-cyclopropyl-2-(5-methyl-1,2,4-oxadiazol-3-yl)propan-2-yl]-5-(3-fluorooxetan-3-yl)-4-[(2S)-1,1,1-trifluoropropan-2-yl]oxypyridine-2-carboxamide]
Human CB2 receptors
  pEC50: 7.83
Human CB1 receptors
  pEC50: < 5.00

## CNC(=O)[C@@H](NC(=O)c1cc(O[C@@H](C)C(F)(F)F)c(C2(F)COC2)cn1)C(C)(C)C [Example 172, N-[(2S)-3,3-dimethyl-1-(methylamino)-1-oxobutan-2-yl]-5-(3-fluorooxetan-3-yl)-4-[(2S)-1,1,1-trifluoropropan-2-yl]oxypyridine-2-carboxamide]
Human CB2 receptors
  pEC50: 7.48
Human CB1 receptors
  pEC50: < 5.00

## Cc1nnc(C(C)(CC2CC2)NC(=O)c2cc(OCC(F)(F)F)c(C3CC3)cn2)o1 (stereo not drawn) [Example 173, 5-cyclopropyl-N-[1-cyclopropyl-2-(5-methyl-1,3,4-oxadiazol-2-yl)propan-2-yl]-4-(2,2,2-trifluoroethoxy)pyridine-2-carboxamide]
Human CB2 receptors
  pEC50: 7.26
Human CB1 receptors
  pEC50: < 5.00

## Cc1nnc(C(NC(=O)c2cc(OCC(F)(F)F)c(C3CC3)cn2)C(C)(C)C)o1 (stereo not drawn) [Example 174, 5-cyclopropyl-N-[2,2-dimethyl-1-(5-methyl-1,3,4-oxadiazol-2-yl)propyl]-4-(2,2,2-trifluoroethoxy)pyridine-2-carboxamide]
Human CB2 receptors
  pEC50: 7.66
Human CB1 receptors
  pEC50: < 5.00

## Cc1nnc(C(NC(=O)c2cc(O[C@@H](C)C(F)(F)F)c(C3(F)COC3)cn2)C(C)(C)C)o1 (stereo partly drawn) [Example 175, N-[2,2-dimethyl-1-(5-methyl-1,3,4-oxadiazol-2-yl)propyl]-5-(3-fluorooxetan-3-yl)-4-[(2S)-1,1,1-trifluoropropan-2-yl]oxypyridine-2-carboxamide]
Human CB2 receptors
  pEC50: 7.02
Human CB1 receptors
  pEC50: < 5.00

## Cc1nnc(C(C)(CC2CC2)NC(=O)c2cc(O[C@@H](C)C(F)(F)F)c(C3(F)COC3)cn2)o1 (stereo partly drawn) [Example 176, N-[1-cyclopropyl-2-(5-methyl-1,3,4-oxadiazol-2-yl)propan-2-yl]-5-(3-fluorooxetan-3-yl)-4-[(2S)-1,1,1-trifluoropropan-2-yl]oxypyridine-2-carboxamide]
Human CB2 receptors
  pEC50: 6.35
Human CB1 receptors
  pEC50: < 5.00

## Cc1cnc(C(C)(CC2CC2)NC(=O)c2cc(OCC(F)(F)F)c(C3CC3)cn2)s1 (stereo not drawn) [Example 177, 5-cyclopropyl-N-[1-cyclopropyl-2-(5-methyl-1,3-thiazol-2-yl)propan-2-yl]-4-(2,2,2-trifluoroethoxy)pyridine-2-carboxamide]
Human CB2 receptors
  pEC50: 7.91
Human CB1 receptors
  pEC50: < 5.00

## Cc1nc(C(C)(NC(=O)c2cc(OCC(F)(F)F)c(C3CC3)cn2)C(N)=O)no1 (stereo not drawn) [Example 180, N-[1-amino-2-(5-methyl-1,2,4-oxadiazol-3-yl)-1-oxopropan-2-yl]-5-cyclopropyl-4-(2,2,2-trifluoroethoxy)pyridine-2-carboxamide]
Human CB2 receptors
  pEC50: 6.83
Human CB1 receptors
  pEC50: < 5.00

## Cc1nc(C(C)(NC(=O)c2cc(OCC(F)(F)F)c(C3CC3)cn2)C(=O)N(C)C)no1 (stereo not drawn) [Example 181, 5-cyclopropyl-N-[1-(dimethylamino)-2-(5-methyl-1,2,4-oxadiazol-3-yl)-1-oxopropan-2-yl]-4-(2,2,2-trifluoroethoxy)pyridine-2-carboxamide]
Human CB2 receptors
  pEC50: 8.70
Human CB1 receptors
  pEC50: < 5.00

## Cc1nc(C(C)(NC(=O)c2cc(OCC(F)(F)F)c(C3CC3)cn2)C(=O)N2CCC2)no1 (stereo not drawn) [Example 182, N-[1-(azetidin-1-yl)-2-(5-methyl-1,2,4-oxadiazol-3-yl)-1-oxopropan-2-yl]-5-cyclopropyl-4-(2,2,2-trifluoroethoxy)pyridine-2-carboxamide]
Human CB2 receptors
  pEC50: 8.27
Human CB1 receptors
  pEC50: < 5.00

## CNC(=O)C(C)(NC(=O)c1cc(O[C@@H](C)C(F)(F)F)c(C2(F)COC2)cn1)c1noc(C)n1 (stereo partly drawn) [Example 183, 5-(3-fluorooxetan-3-yl)-N-[1-(methylamino)-2-(5-methyl-1,2,4-oxadiazol-3-yl)-1-oxopropan-2-yl]-4-[(2S)-1,1,1-trifluoropropan-2-yl]oxypyridine-2-carboxamide]
Human CB2 receptors
  pEC50: 6.04
Human CB1 receptors
  pEC50: < 5.00

## CC(CC1CC1)(NC(=O)c1cc(OCC(F)(F)F)c(C2CC2)cn1)C(N)=O (stereo not drawn) [Example 186, N-(1-amino-3-cyclopropyl-2-methyl-1-oxopropan-2-yl)-5-cyclopropyl-4-(2,2,2-trifluoroethoxy)pyridine-2-carboxamide]
Human CB2 receptors
  pEC50: 6.46
Human CB1 receptors
  pEC50: < 5.00

## CNC(=O)C(C)(CC1CC1)NC(=O)c1cc(OCC(F)(F)F)c(C2CC2)cn1 (stereo not drawn) [Example 189, 5-cyclopropyl-N-[3-cyclopropyl-2-methyl-1-(methylamino)-1-oxopropan-2-yl]-4-(2,2,2-trifluoroethoxy)pyridine-2-carboxamide]
Human CB2 receptors
  pEC50: 6.53
Human CB1 receptors
  pEC50: < 5.00

## Cc1nnc(C(C)(CC2COC2)NC(=O)c2cc(O[C@@H](C)C(F)(F)F)c(C3CC3)cn2)o1 (stereo partly drawn) [Example 190, 5-cyclopropyl-N-[2-(5-methyl-1,3,4-oxadiazol-2-yl)-1-(oxetan-3-yl)propan-2-yl]-4-[(2S)-1,1,1-trifluoropropan-2-yl]oxypyridine-2-carboxamide]
Human CB2 receptors
  pEC50: 6.25
Human CB1 receptors
  pEC50: < 5.00
